Test results published in patent EP0398230B1, “Antiviral, highly water soluble, stable, crystalline salts of 2',3'-dideoxyinoside monohydrate, 2',3'-dideoxy-2',3'-didehydrothymidine monohydrate and 2',3'-dideoxy-2'-fluoroinosine hemihydrate” (priority 1989, dated 1990).
Where two headings read alike, the source gives them in different places.

Legend:
[1] = 5 weeks at 70°C
physchem = conditions: water, pH 10, water, thermodynamic from solid

Aqueous Solution Stability, loss (1 week at 50°C)	Aqueous Solution Stability, loss (1 week at 70°C)	Solid State Stability [1]	Structure (SMILES)	solubility (physchem)
5%	10%	No loss	OC[C@@H]1CC[C@H](n2cnc3c(O)ncnc32)O1.[Na] [Na-DDI·H2O, sodium-2',3'-dideoxyinosine]	–
–	–	–	O=c1[nH]cnc2c1ncn2[C@@H]1O[C@H](CO)C[C@@H]1F [Sodium F-ddI Hemihydrate, sodium-2',3'-dideoxy-2'-fluoroinosine]	~400 mg/mL
